Experiments:
human OX1 receptor = molecular target: T1, human OX1 receptor (Homo sapiens, UniProt O43613); experiment: [3H]-radioligand binding assay, OX1; set-up: made in house; host or cells: SF21 insect cells (baculovirus; P0 virus made in SF9); details: [3H]-radioligand binding, human OX1 membranes; read-out: pKi average OX1 (converted)
T1 sequence (O43613 1-425): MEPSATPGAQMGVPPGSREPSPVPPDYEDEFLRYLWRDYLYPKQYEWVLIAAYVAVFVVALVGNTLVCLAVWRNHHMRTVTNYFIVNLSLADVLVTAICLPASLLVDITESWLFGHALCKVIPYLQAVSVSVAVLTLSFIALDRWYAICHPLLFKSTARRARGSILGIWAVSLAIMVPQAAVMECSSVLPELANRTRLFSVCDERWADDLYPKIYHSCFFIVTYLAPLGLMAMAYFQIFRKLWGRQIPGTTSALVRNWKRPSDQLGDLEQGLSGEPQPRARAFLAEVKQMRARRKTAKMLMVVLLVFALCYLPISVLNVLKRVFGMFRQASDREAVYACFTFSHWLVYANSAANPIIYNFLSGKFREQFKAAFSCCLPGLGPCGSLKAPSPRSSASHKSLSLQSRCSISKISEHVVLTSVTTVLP
Description: (§1) Cloning, Baculovirus generation, large-scale infection of SF21 cells and membrane preparation. Human OX1 or OX2 receptor were cloned into Invitrogen's (ThermoFisher Scientific, UK) Bac-to-Bac Baculovirus Expression System. P0 baculovirus was generated by transfecting SF9 cells with bacmid DNA using Cellfectin® II transfection reagent (ThermoFisher Scientific, UK, Catalog number 10362-100). Following P0 generation P1 virus was then generated ready for large scale infection and membrane preparation. SF21 cells were grown in expression medium ESF921 (Expression Systems, USA, catalog number 96-001-01) supplemented with 10% heat-inactivated FBS and 1% Pen/Strep and were infected at a cell density of 2.5×10^6 cells/mL and a multiplicity of infection of 1.0 for both human OX1R and OX2R. Incubation was carried out at over 48 h in a shaking incubator set at 27° C. The cell culture was then centrifuged at 2,500 rcf for 10 min at 4° C. The pellets were resuspended in cold PBS supplemented with Roche's Complete EDTA-free protease inhibitor cocktail tablets (Roche Applied Sciences, catalog number 05056489001), 1 mM PMSF and 1 mM EDTA. The resuspended cell paste was then centrifuged at 3,273 rcf for 12 min at 4° C. The supernatant was discarded and the pellet frozen at −80° C. The cell pellet from a 4 L culture was resuspended in buffer containing 50 mM HEPES pH 7.5, 150 mM NaCl, 8 Roche EDTA-Free protease inhibitor cocktail tablets and 1 mM PMSF. The suspension was left stirring at rt for 1 h and then homogenised for 90 s at 9,500 rpm using a VDI 25 (VWR, USA) homogeniser. The cells were then lysed using a Microfluidiser processor M-110L Pneumatic (Microfluidics, USA) at 60 PSI and membranes collected by ultracentrifugation at 204.7 k×g for 1 h. The supernatant was discarded and the pellet was resuspended and homogenised in 90 s at 9,500 rpm in 50 mL (25 mL for each 2 L culture) of buffer containing 50 mM Hepes pH 7.5, 150 mM NaCl, 3 Roche EDTA-free protease inhibitor cocktail tablets and 1 mM PMSF. The resulting membranes were then stored at −80° C.
(§2) [^3H]-radioligand binding assay. After thawing, membrane homogenates were resuspended in the binding buffer (8.5 mM HEPES, pH 7.4, 1.3 mM CaCl2, 1.2 mM MgSO4, 118 mM NaCl, 4.7 mM KCl, 4 mM NaHCO3, 1.2 mM KH2PO4, 11 mM glucose) to a final assay concentration of 6.4 μg (OX1) or 1.4 μg (OX2) protein per well. Saturation isotherms were determined by the addition of various concentrations (0-30 nM) of [^3H]-4-(2,6-difluoro-4-methoxybenzyl)-2-(5,6-dimethoxypyridin-3-yl)-2H-1,2,4-benzothiadiazin-3(4H)-one 1,1-dioxide (Christopher et al, MedChemComm., 2015, 6, 947-955) in a total reaction volume of 250 μL for 90 min at rt. At the end of the incubation, membranes were filtered onto a 96-well GF/B filter pre-incubated with 0.5% polyethylenimine, with a Tomtec cell harvester and washed 5 times with 0.5 mL distilled water. Non-specific binding (NSB) was measured in the presence of 3.33 μM [4-(5-chloro-1,3-benzoxazol-2-yl)-7-methyl-1,4-diazepan-1-yl][5-methyl-2-(2H-1,2,3-triazol-2-yl)phenyl]methanone (Wertz et al, Angew. Chem. Int. Ed., 2011, 50, 11511-11515). Radioactivity on the filter was counted (1 min) on a Microbeta radiometric plate counter (Perkin Elmer) after addition of 50 μL of scintillation fluid (LabLogic: Part #SG-BXX-14). […] IC50 values were derived from the inhibition curve and the equilibrium dissociation constant (Ki) values were calculated using the Cheng-Prusoff equation.

human OX2 receptor = molecular target: T2, human OX2 receptor (Homo sapiens, UniProt O43614); experiment: [3H]-radioligand binding assay, OX2; set-up: made in house; host or cells: SF21 insect cells (baculovirus; P0 virus made in SF9); details: [3H]-radioligand binding, human OX2 membranes; read-out: pKi average OX2 (converted)
T2 sequence (O43614 1-444): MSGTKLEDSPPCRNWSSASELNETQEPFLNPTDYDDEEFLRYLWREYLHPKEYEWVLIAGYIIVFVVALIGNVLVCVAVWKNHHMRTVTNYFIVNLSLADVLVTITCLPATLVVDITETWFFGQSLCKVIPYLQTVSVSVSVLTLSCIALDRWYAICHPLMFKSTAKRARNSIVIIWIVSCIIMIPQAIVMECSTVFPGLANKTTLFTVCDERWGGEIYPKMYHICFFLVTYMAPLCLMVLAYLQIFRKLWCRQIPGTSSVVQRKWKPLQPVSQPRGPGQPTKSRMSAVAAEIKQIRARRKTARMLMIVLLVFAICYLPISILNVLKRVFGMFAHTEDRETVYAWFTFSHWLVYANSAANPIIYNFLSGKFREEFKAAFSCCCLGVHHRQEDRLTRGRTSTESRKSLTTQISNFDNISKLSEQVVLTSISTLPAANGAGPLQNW
Description: as §1, §2

| SMILES | Ki (human OX1 receptor) | Ki (human OX2 receptor) |
| --- | --- | --- |
| CCCc1cc(F)c(CN2C(=O)N(c3ccc(C)c(S(C)(=O)=O)c3)CCc3c(F)cccc32)c(F)c1 [Example 28, 1-(2,6-difluoro-4-propylbenzyl)-6-fluoro-3-[4-methyl-3-(methylsulfonyl)phenyl]-1,3,4,5-tetrahydro-2H-1,3-benzodiazepin-2-one] | 2 nM | > 316 nM |
| CCCc1cc(F)c(CN2C(=O)N(c3cnc(C)c(C(C)(F)F)c3)CCc3c(F)cccc32)c(F)c1 [Example 34, 3-[5-(1,1-difluoroethyl)-6-methylpyridin-3-yl]-1-(2,6-difluoro-4-propylbenzyl)-6-fluoro-1,3,4,5-tetrahydro-2H-1,3-benzodiazepin-2-one] | 1.58 nM | > 251 nM |
| COc1cc(F)c(CN2C(=O)N(c3cnc(OC)c(S(C)(=O)=O)c3)CCc3c(F)cccc32)c(F)c1F [Example 15, 6-fluoro-3-[6-methoxy-5-(methylsulfonyl)pyridin-3-yl]-1-(2,3,6-trifluoro-4-methoxybenzyl)-1,3,4,5-tetrahydro-2H-1,3-benzodiazepin-2-one] | 1.26 nM | > 251 nM |
| Cc1ncc(C2CCc3c(F)cccc3N(Cc3c(F)cc(Br)cc3F)C2=O)cc1C(C)(F)F (single isomer, unassigned) [Example 36, 1-(4-bromo-2,6-difluorobenzyl)-3-[5-(1,1-difluoroethyl)-6-methylpyridin-3-yl]-6-fluoro-1,3,4,5-tetrahydro-2H-1-benzazepin-2-one] | 0.631 nM | 200 nM |
| CSc1cc(N2CCc3c(F)cccc3N(Cc3c(F)cc(Br)cc3F)C2=O)ccc1C [Example 26, 1-(4-bromo-2,6-difluorobenzyl)-6-fluoro-3-[4-methyl-3-(methylsulfanyl)phenyl]-1,3,4,5-tetrahydro-2H-1,3-benzodiazepin-2-one] | 1.26 nM | 100 nM |
| COCc1cc(F)c(CN2C(=O)N(c3cnc(OC)c(C(C)(F)F)c3)CCc3c(F)cccc32)c(F)c1 [Example 7, 3-[5-(1,1-difluoroethyl)-6-methoxypyridin-3-yl]-1-[2,6-difluoro-4-(methoxymethyl)benzyl]-6-fluoro-1,3,4,5-tetrahydro-2H-1,3-benzodiazepin-2-one] | 1 nM |  |
| [2H]C([2H])([2H])Oc1ncc(N2CCc3c(F)cccc3N(Cc3c(F)cc(Br)cc3F)C2=O)cc1C(C)(F)F [Example 2, 1-(4-bromo-2,6-difluorobenzyl)-3-{5-(1,1-difluoroethyl)-6-[(^2H3)methyloxy]pyridin-3-yl}-6-fluoro-1,3,4,5-tetrahydro-2H-1,3-benzodiazepin-2-one] | 0.631 nM |  |
| Cc1ncc(N2CCc3c(F)cccc3N(Cc3c(F)cc(Br)cc3F)C2=O)cc1OC(F)F [Example 37, 1-(4-bromo-2,6-difluorobenzyl)-3-[5-(difluoromethoxy)-6-methylpyridin-3-yl]-6-fluoro-1,3,4,5-tetrahydro-2H-1,3-benzodiazepin-2-one] | 1.58 nM |  |
| Cc1cc(C)c(S(C)(=O)=O)cc1N1CCc2ccccc2N(Cc2c(F)cc(OC(C)C)cc2F)C1=O [Example 30, 1-[2,6-difluoro-4-(propan-2-yloxy)benzyl]-3-[2,4-dimethyl-5-(methylsulfonyl)phenyl]-1,3,4,5-tetrahydro-2H-1,3-benzodiazepin-2-one] | 1.26 nM |  |
| COc1ncc(N2CCc3c(F)cccc3N(Cc3c(F)cc(Cl)cc3F)C2=O)cc1C(C)(F)F [Example 9, 1-(4-chloro-2,6-difluorobenzyl)-3-[5-(1,1-difluoroethyl)-6-methoxypyridin-3-yl]-6-fluoro-1,3,4,5-tetrahydro-2H-1,3-benzodiazepin-2-one] | 0.794 nM |  |
| COc1cc(F)c(CN2C(=O)N(c3cnc(OC)c(S(C)(=O)=O)c3)CCc3c(F)cccc32)c(F)c1 [Example 16, 1-(2,6-difluoro-4-methoxybenzyl)-6-fluoro-3-[6-methoxy-5-(methylsulfonyl)pyridin-3-yl]-1,3,4,5-tetrahydro-2H-1,3-benzodiazepin-2-one] | 0.794 nM |  |
| COc1ncc(N2CCc3c(F)cccc3N(Cc3c(C)cc(Br)cc3F)C2=O)cc1S(C)(=O)=O [Example 17, 1-(4-bromo-2-fluoro-6-methylbenzyl)-6-fluoro-3-[6-methoxy-5-(methylsulfonyl)pyridin-3-yl]-1,3,4,5-tetrahydro-2H-1,3-benzodiazepin-2-one] | 0.794 nM |  |
| [2H]C([2H])([2H])OCc1cc(F)c(CN2C(=O)N(c3cnc(OC)c(C(C)(F)F)c3)CCc3c(F)cccc32)c(F)c1 [Example 5, 3-[5-(1,1-difluoroethyl)-6-methoxypyridin-3-yl]-1-(2,6-difluoro-4-{[(^2H3)methyloxy]methyl}benzyl)-6-fluoro-1,3,4,5-tetrahydro-2H-1,3-benzodiazepin-2-one] | 0.316 nM |  |
| COc1ncc(C2CCc3c(F)cccc3N(Cc3c(F)cc(Br)cc3F)C2=O)cc1S(C)(=O)=O (single isomer, unassigned) [Example 21, 1-(4-bromo-2,6-difluorobenzyl)-6-fluoro-3-[6-methoxy-5-(methylsulfonyl)pyridin-3-yl]-1,3,4,5-tetrahydro-2H-1-benzazepin-2-one] | 0.316 nM |  |
| COc1cc(F)c(CN2C(=O)N(c3cnc(OC)c(C(C)(F)F)c3)CCc3c(F)cccc32)c(F)c1 [Example 8, 3-[5-(1,1-difluoroethyl)-6-methoxypyridin-3-yl]-1-(2,6-difluoro-4-methoxybenzyl)-6-fluoro-1,3,4,5-tetrahydro-2H-1,3-benzodiazepin-2-one] | 0.398 nM |  |
| COc1ncc(N2CCc3c(F)cccc3N(Cc3c(C)cc(F)cc3F)C2=O)cc1S(C)(=O)=O [Example 18, 1-(2,4-difluoro-6-methylbenzyl)-6-fluoro-3-[6-methoxy-5-(methylsulfonyl)pyridin-3-yl]-1,3,4,5-tetrahydro-2H-1,3-benzodiazepin-2-one] | 1.26 nM |  |

From patent US20210179578A1, “OX1 ANTAGONISTS” (Heptares Therapeutics Limited, priority 2017, published 2021)
